Patent publication US20170266184A1 (priority 2016, published 2017)
Where two headings read alike, the source gives them in different places.

Columns and labels:
5-HT-1A receptor [1] = biological target: T1, 5-HT-1A receptor (Rattus norvegicus, UniProt P19327); parameters: host or cells: rat, whole animal (in vivo); conditions: rats; cited from earlier work
T1 sequence (P19327 1-422): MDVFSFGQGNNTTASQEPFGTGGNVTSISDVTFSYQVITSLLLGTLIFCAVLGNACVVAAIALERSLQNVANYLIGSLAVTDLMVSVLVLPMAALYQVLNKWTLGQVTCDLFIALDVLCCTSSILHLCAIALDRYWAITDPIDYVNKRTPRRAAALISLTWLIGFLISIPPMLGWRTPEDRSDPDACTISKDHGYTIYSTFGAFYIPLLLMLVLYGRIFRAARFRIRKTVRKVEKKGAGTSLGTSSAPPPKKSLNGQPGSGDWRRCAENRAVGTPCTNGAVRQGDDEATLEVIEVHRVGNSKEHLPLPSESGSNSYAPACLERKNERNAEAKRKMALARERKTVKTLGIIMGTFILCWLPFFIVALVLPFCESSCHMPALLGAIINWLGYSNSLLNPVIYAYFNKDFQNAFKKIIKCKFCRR

5-HT-1A receptor [2] = biological target: T1, 5-HT-1A receptor; conditions: subcutaneous injection; cited from earlier work
rats [3] = conditions: buspirone and apomorphine co-administered to rats; cited from earlier work
rats [4] = system: rats
Procedure: After post-conditioning the challenge dose of morphine (7.5 mg/kg) was given. The hot plate test was conducted 30 min after challenge dose to measure difference in heat-induced nociception in the six groups. The latency (either jumping or hind-paw licking) and number of licks were monitored for each animal. The temperature of hot plate was kept 52° C. and cutoff time was 30 sec.

rats [5] = system: rats; remark: listed apart in the source
Procedure: This phase started one day after pre-conditioning phase, animals were randomly assigned to six groups, each containing six animals: (i) buspirone 0 mg/kg+saline, (ii) buspirone 0 mg/kg+morphine, (iii) buspirone 1 mg/kg+saline, (iv) buspirone 1 mg/kg+morphine, (v) buspirone 2 mg/kg+saline and (vi) buspirone 2 mg/kg+morphine injected animals. Over next 12 days (day 1 to day 12) animals went through conditioning (one session per day) in which they were confined to either the horizontal or vertical stripe compartment by raising the respective guillotine door. On day 1, 3, 5, 7, 9 and 11 animals of all groups were injected with saline (1 ml/kg) and placed immediately in the assigned ‘Non-Drug’ compartment for 30 min. After which the animals were kept in their home cages. On every other day, i.e. day 2, 4, 6, 8, 10, and 12 control and test animals were injected with saline, buspirone and/or morphine as assigned above. Immediately after injection the animals were placed in the ‘Drug’ compartment for 30 min. The animals picked from the drug compartment were placed back in their home cages.
Motor behavior was also monitored during conditioning phase. Animals confined to a compartment were moving across the compartment. Activity scores were counted as number of cage crossings for 10 min starting 5 min post injection.

rats [6] = experiment: Conditioned place preference (CPP) test of drug-induced reinforcement; type: in vivo, rat
Procedure: A three compartment conditioned place preference (CPP) apparatus with an unbiased design was used to monitor drug-induced reinforcement. The apparatus was made up of transparent plastic Perspex. The compartments were separated by sliding guillotine doors.
The end (preference) compartments (26×26×26 cm each) provided distinct contexts, with one compartment having black horizontal stripes on side walls, the other compartment had vertical black stripes. […] The experiment was conducted in three distinct phases: pre-conditioning, conditioning and post-conditioning.
An animal introduced in the CPP apparatus from the middle compartment and guillotine doors were raised to open. The animal was allowed to explore the entire apparatus for 10 min. Time spent in each compartment was recorded.
The test was carried out on day 13, one day after the last conditioning session, in a drug free state. Each animal was tested only once. As in the pre-conditioning phase, the guillotine doors were removed and rat was given access to the entire apparatus for 10 min. Time spent in ‘Drug’ assigned compartment was monitored.

monkeys = conditions: cited from earlier work
humans = conditions: cited from earlier work
rhesus monkeys = conditions: fluoxetine with morphine; cited from earlier work
rats [7] = conditions: fluoxetine with morphine; cited from earlier work
[8] = all three doses of morphine vs saline treated animals, FIG. 3

## CCCN(CCC)C1CCc2cccc(O)c2C1 (centres unmarked) [8-OH-DPAT, 8-hydroxy-N,N-dipropyl-2-aminotetralin]
5-HT-1A receptor [1]
  Anti-nociceptive effects: has anti-nociceptive effects
5-HT-1A receptor [2]
  Analgesic effect: produces an analgesic effect

## O=C1CC2(CCCC2)CC(=O)N1CCCCN1CCN(c2ncccn2)CC1 [buspirone]
Rats [3]
  Addiction to apomorphine: not produced
Rats [4]; buspirone co-injected animals
  Analgesic effects of morphine: potentiated
Rats [5]; animals co-treated with buspirone
  Calculated percentage psychosis like effects of morphine: blocked
Rats [5]; co-administration of 1 mg/kg buspirone, FIG. 2B
  Psychosis like effects of morphine: blocked
Rats [5]; co-administration of 2 mg/kg buspirone, FIG. 2B
  Psychosis like effects of morphine: attenuated
Rats [5]; co-treated with buspirone 1 mg/kg or 2 mg/kg, FIG. 2A
  Tolerance in motor depressant effects of morphine: not produced
Rats [6]; buspirone 1 mg or 2 mg/kg co-administered with morphine 7.5 mg/kg, FIG. 1A
  Morphine-induced increases in post-conditioning time spent in drug paired compartment: significantly attenuates
Rats [6]; buspirone 1 mg or 2 mg/kg co-administered with morphine 7.5 mg/kg, FIG. 1B
  Reinforcing effects of morphine (calculated percentage reinforcement): do not occur
Rats [6]; buspirone co-injected animals
  Reduction of addiction to morphine: more than 90%

## CN(C)CCCN1c2ccccc2CCc2ccc(Cl)cc21 [clomipramine]
monkeys
  Anti-nociceptive effects of opioids: enhances

## CCNC(C)Cc1cccc(C(F)(F)F)c1 (centres unmarked) [fenfluramine]
humans
  Analgesic effects of morphine: increase

## CNCCC(Oc1ccc(C(F)(F)F)cc1)c1ccccc1 (centres unmarked) [fluoxetine]
Rhesus monkeys
  Anti-nociceptive effects of morphine: potentiates
Rats [7]
  Anti-nociceptive effects of morphine: potentiates
humans
  Analgesic effects of morphine: increase

## CN1CC[C@]23c4c5ccc(O)c4O[C@H]2[C@@H](O)C=C[C@H]3[C@H]1C5 [morphine]
Rats [4]; 7.5 mg/kg vs 5 mg/kg morphine, FIG. 3
  Increase in latency time in paw licking, comparison of doses: greater at 7.5 mg/kg than 5 mg/kg
Rats [4]; [8]
  Latency time in paw licking: increase
  Number of licks: reduced
Rats [4]; repeated morphine treated animals, 30 min after 7.5 mg/kg morphine challenge, FIG. 4
  Latency time to first lick: reduced
Rats [4]; repeated morphine treated animals, after morphine challenge, FIG. 4
  Number of licks: higher
Rats [5]; 1st and 2nd injection of morphine, FIG. 2A
  Motor activity: decrease
Rats [5]; 3rd to 6th administration of morphine, day 6, 8, 10 and 12, FIG. 2A
  Decreases in motor activity (tolerance in motor depressant effect): do not occur
Rats [5]; morphine alone, FIG. 2B
  Psychosis like effects: produced psychosis like effects
Rats [6]; morphine 7.5 mg/kg alone, repeated, FIG. 1A
  Post-conditioning time spent in the drug paired compartment: much higher
Rats [6]; morphine 7.5 mg/kg alone, FIG. 1B
  Calculated percentage reinforcement: reinforcing
